Assay [1] has as its target T1, binding of His-XIAP(BIR2)-avi fusion protein to GST-RIPK2 fusion protein (RIPK2/XIAP) (Homo sapiens, UniProt O43353).
T1 construct: made in house; host or cells: baculovirus infected Sf9 cells
The assay can be described thus: RIPK2-XIAP binding competition PPI assay (TR-FRET). The settings on record: RIPK2/XIAP binding competition PPI assay; for Emax: Amax, read-out: PPI Amax bin; for IC50: read-out: PPI IC50 bin. In short, it runs like this:
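Compounds (in DMSO, 100-fold stock) incubated 120 min at 23 °C with 1 nM GST-RIPK2 (aa 1-310) and 25 nM His-XIAP(BIR2 aa 152-231)-avi, plus anti-His-XL665 and anti-GST-Tb, in pH 7.5 Tris buffer. Read-out: 665/520 nm emission ratio. Normalized to no-inhibitor (0%) and 50 nM GSK583 (−100%); Amax binned A–D.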
A general note: Time-resolved FRET reads energy transfer from a long-lived donor to a nearby acceptor.

The target in assay [2] is T2, GST-RIPK2 fusion protein (human RIPK2, amino acids 1-310) (Homo sapiens, UniProt O43353).
T2 construct: made in house; host or cells: baculovirus infected Sf9 cells
T2 sequence (O43353 1-310): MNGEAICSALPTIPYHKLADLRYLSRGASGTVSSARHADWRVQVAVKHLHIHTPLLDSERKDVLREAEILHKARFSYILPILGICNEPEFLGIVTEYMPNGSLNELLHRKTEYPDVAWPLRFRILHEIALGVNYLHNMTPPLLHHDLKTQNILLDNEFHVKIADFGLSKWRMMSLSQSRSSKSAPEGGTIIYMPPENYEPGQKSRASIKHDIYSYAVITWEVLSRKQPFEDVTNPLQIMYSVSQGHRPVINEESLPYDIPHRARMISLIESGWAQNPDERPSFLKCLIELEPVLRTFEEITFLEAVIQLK
In words: RIPK2 binding competition assay (TR-FRET, Tracer 199 displacement). The settings on record: 10 nM Tracer 199, 1 nM GST-RIPK2, read-out: RIPK2 IC50. The method in brief:
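IC50 derived from the TR-FRET emission ratio (665/620 nm, 337 nm excitation), normalized with no-inhibitor and no-enzyme controls. Incubation 45 min at 22 °C, pH 7.5 Tris buffer, with final 10 nM tracer, 1 nM Sf9-expressed GST-RIPK2 fragment (aa 1-310) and 0.5 nM Tb-labelled anti-GST.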

The test system of assay [3] is NF-κB pathway (SEAP) in THP1-Dual cells. In words: THP-1 Dual cell SEAP assay (L18-MDP stimulated). The assay is classed as cell-based. Conditions: Homo sapiens, THP1-Dual, read-out: NF-κB THP1 IC50 bin. In short, it runs like this:
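IC50 values derive from non-linear regression of % inhibition, calculated against DMSO/L18-MDP-treated wells after media-only subtraction. NF-κB SEAP activity was read at OD 620-655 nm (QUANTI-Blue, 2 h, 37 °C) from supernatants of THP1-Dual cells. Cells had been compound-treated 30 min before overnight (20-24 h) stimulation with 10 ng/mL final L18-MDP.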

Our source for the Emax and IC50 values is patent US20260137706A1, “METHODS OF TREATING INFLAMMATORY DISEASES” (INTERLINE THERAPEUTICS, INC., priority 2023, published 2026).

What is called IC50 is the concentration at which inhibition is half-maximal.

T1 sequence (O43353 1-310 limits assumed): as the sequence (O43353 1-310) above

For `CC(C)(C)S(=O)(=O)c1cn2c(-c3cc(F)c(N)nc3F)cnc2cc1OC[C@H]1C[C@H](O)C1` [Example 197, (1r,3r)-3-(((3-(6-amino-2,5-difluoropyridin-3-yl)-6-(tert-butylsulfonyl)imidazo [1,2-a]pyridin-7-yl)oxy)methyl) cyclobutan-1-ol], in assay [1], the Emax is greater than 80%. The IC50 in assay [1] is less than 1 nM; in assay [2], less than 1 nM; in assay [3], 50 to 250 nM.

As for `CC(C)(C)S(=O)(=O)c1cn2c(-c3cc(F)c(N)nc3F)cnc2cc1-c1cn[nH]c1` [Example 31, 5-(6-(tert-butylsulfonyl)-7-(1H-pyrazol-4-yl)imidazo[1,2-a]pyridin-3-yl)-3,6-difluoropyridin-2-amine], the Emax in assay [1] is greater than 80%. Further, the IC50 in assay [1] is 2.5 to 20 nM; in assay [2], 2.5 to 20 nM; in assay [3], greater than 1000 nM.

In the case of `C[C@H](CO)Oc1cc2ncc(-c3cc(Cl)c(N)nc3F)n2cc1S(=O)(=O)C(C)(C)C` [Example 258, (R)-2-((3-(6-amino-5-chloro-2-fluoropyridin-3-yl)-6-(tert-butylsulfonyl)imidazo [1,2-a]pyridin-7-yl)oxy)propan-1-ol], the Emax in assay [1] was greater than 80%. The results for the IC50 in assay [1], in assay [2] and in assay [3] were 2.5 to 20 nM, 2.5 to 20 nM and 250 to 1000 nM, respectively.

Consider `CC(C)(C)S(=O)(=O)c1cc2c(-c3cc(Cl)c(N)nc3F)cnn2cc1OCCO` [Example 15, 2-((3-(6-amino-5-chloro-2-fluoropyridin-3-yl)-5-(tert-butylsulfonyl)pyrazolo[1,5-a]pyridin-6-yl)oxy)ethan-1-ol], for which the Emax in assay [1] was greater than 80%. In addition, the IC50 in assay [1] was in the range of 1 to 2.5 nM; in assay [2] it was 1 to 2.5 nM; in assay [3], 50 to 250 nM.

Regarding `Cc1c[nH]c2ncc(-c3cnc4cc(OCCO)c(S(=O)(=O)C(C)(C)C)cn34)cc12` [Example 218, 2-((6-(tert-butylsulfonyl)-3-(3-methyl-1H-pyrrolo[2,3-b]pyridin-5-yl)imidazo[1,2-a]pyridin-7-yl)oxy)ethan-1-ol], the Emax in assay [1] lay within 55 to 80%. For the same compound, the IC50 is 2.5 to 20 nM in assay [1], 2.5 to 20 nM in assay [2] and greater than 1000 nM in assay [3].

As to `COc1cc2ncc(-c3cc(F)c(OC)c(NS(=O)(=O)C4COC4)c3)n2cc1S(=O)(=O)C(C)(C)C` [Example 142, N-(5-(6-(tert-butylsulfonyl)-7-methoxyimidazo[1,2-a]pyridin-3-yl)-3-fluoro-2-methoxyphenyl)oxetane-3-sulfonamide], the Emax in assay [1] is greater than 80%. Besides, the IC50 in assay [1] lay in the range of 1 to 2.5 nM; in assay [2], 1 to 2.5 nM; in assay [3] it was 250 to 1000 nM.

Take `C[C@H](O)COc1cn2ncc(-c3cc(Cl)c(N)nc3F)c2cc1S(=O)(=O)C(C)(C)C` [Example 46, (S)-1-((3-(6-amino-5-chloro-2-fluoropyridin-3-yl)-5-(tert-butylsulfonyl)pyrazolo[1,5-a]pyridin-6-yl)oxy)propan-2-ol]: the Emax in assay [1] was greater than 80%. In addition, the IC50 in assay [1] fell in the range of 1 to 2.5 nM; in assay [2], 1 to 2.5 nM; in assay [3], 50 to 250 nM.

Take `Nc1cc(-c2cnc3ccc(C(F)(F)F)cn23)cc(F)n1` [Example 4, 6-fluoro-4-(6-(trifluoromethyl)imidazo[1,2-a]pyridin-3-yl)pyridin-2-amine]: in assay [1], the Emax was less than 30%. For the same compound, the IC50 was greater than 20 nM in assay [1], greater than 20 nM in assay [2] and 250 to 1000 nM in assay [3].

As for `CC(C)(C)S(=O)(=O)c1cn2c(-c3cc(F)c(N)nc3F)cnc2cc1OCC1(O)CC1` [Example 177, 1-(((3-(6-amino-2,5-difluoropyridin-3-yl)-6-(tert-butylsulfonyl)imidazo[1,2-a]pyridin-7-yl)oxy)methyl)cyclopropan-1-ol], in assay [1], the Emax is greater than 80%. For the same compound, the concentration for half-maximal inhibition (IC50) lay in the range of 2.5 to 20 nM in assay [1], 1 to 2.5 nM in assay [2] and 50 to 250 nM in assay [3].

In the case of `COc1cc2ncc(-c3cc(N)nc(F)c3)n2cc1C(F)(F)F` [Example 2, 6-fluoro-4-(7-methoxy-6-(trifluoromethyl)imidazo[1,2-a]pyridin-3-yl)pyridin-2-amine], the Emax in assay [1] was less than 30%. In addition, the IC50 in assay [1] is greater than 20 nM; in assay [2], 2.5 to 20 nM; in assay [3], 50 to 250 nM.

With `COc1cc2ncc(-c3cc(F)c(N)nc3F)n2cc1S(=O)(=O)N1CCOCC1` [Example 163, 3,6-difluoro-5-(7-methoxy-6-(morpholinosulfonyl)imidazo[1,2-a]pyridin-3-yl)pyridin-2-amine], the Emax in assay [1] was greater than 80%. Moreover, the IC50 is greater than 20 nM in assay [1], greater than 20 nM in assay [2] and greater than 1000 nM in assay [3].

With `CC(C)(C)S(=O)(=O)c1cn2c(-c3cc(F)c(N)nc3F)cnc2cc1OCC(CO)C(F)(F)F` (centres unmarked) [Example 57, 2-(((3-(6-amino-2,5-difluoropyridin-3-yl)-6-(tert-butylsulfonyl)imidazo[1,2-a]pyridin-7-yl)oxy)methyl)-3,3,3-trifluoropropan-1-ol], the Emax in assay [1] is greater than 80%. Further, the IC50 in assay [1] lay in the range of 2.5 to 20 nM; in assay [2], 2.5 to 20 nM; in assay [3] it was 250 to 1000 nM.

Take `C[C@@H](CO)COc1cc2ncc(-c3cc(Cl)c(N)nc3F)n2cc1S(=O)(=O)C(C)(C)C` [Example 201, (S)-3-((3-(6-amino-5-chloro-2-fluoropyridin-3-yl)-6-(tert-butylsulfonyl)imidazo [1,2-a]pyridin-7-yl)oxy)-2-methylpropan-1-ol]: the Emax in assay [1] is greater than 80%. For the same compound, the half-maximal inhibitory concentration (IC50) in assay [1] was in the range of 1 to 2.5 nM; in assay [2], 1 to 2.5 nM; in assay [3], 50 to 250 nM.

For the compound `COc1cc2ncc(-c3cc(F)c(OC)c4[nH]c(CO)nc34)n2cc1S(=O)(=O)C(C)(C)C` [Example 119, (4-(6-(tert-butylsulfonyl)-7-methoxyimidazo[1,2-a]pyridin-3-yl)-6-fluoro-7-methoxy-1H-benzo[d]imidazol-2-yl)methanol], in assay [1], the Emax fell in the range of 55 to 80%. The IC50 in assay [1] was less than 1 nM; in assay [2] it was less than 1 nM; in assay [3], less than 50 nM.

On to `COc1cc2ncc(-c3cnc4c(c3)NCCO4)n2cc1S(=O)(=O)C(C)(C)C` [Example 82, 7-(6-(tert-butylsulfonyl)-7-methoxyimidazo[1,2-a]pyridin-3-yl)-2,3-dihydro-1H-pyrido[2,3-b][1,4]oxazine], for which, in assay [1], the Emax was less than 30%. The IC50 in assay [1] was greater than 20 nM; in assay [2], greater than 20 nM; in assay [3], greater than 1000 nM.

As for `COc1cc2ncc(-c3ccc4sc(N)nc4c3)n2cc1S(=O)(=O)C(C)(C)C` [Example 105, 5-(6-(tert-butylsulfonyl)-7-methoxyimidazo[1,2-a]pyridin-3-yl)benzo[d]thiazol-2-amine], the Emax in assay [1] fell in the range of 30 to 55%. Further, the IC50 in assay [1] was greater than 20 nM; in assay [2], greater than 20 nM; in assay [3] it was greater than 1000 nM.

Turning to `C[C@@H](O)COc1cc2ncc(-c3cc(F)c(N)nc3F)n2cc1S(=O)(=O)C(C)(C)C` [Example 171, (R)-1-((3-(6-amino-2,5-difluoropyridin-3-yl)-6-(tert-butylsulfonyl)imidazo[1,2-a]pyridin-7-yl)oxy)propan-2-ol], in assay [1], the Emax is greater than 80%. The results for the IC50 in assay [1], in assay [2] and in assay [3] were 2.5 to 20 nM, 2.5 to 20 nM and 50 to 250 nM, respectively.
